The structures appear in SMILES notation.

What all share (type): functional
Common to all, as to settings: route oral

In test [1] the test system is Rattus norvegicus. The test can be described thus: Hypolipidemic effects of compound on rat plasma high density lipoprotein cholesterol (HDLC) level after peroral administration at 100 mg/kg dose (Experiment 1).
The test system of test [2] is Rattus norvegicus. Briefly: Hypolipidemic effect on rat plasma Total cholesterol (TC) level by peroral administration at 100 mg/kg dose (Experiment 1).
For test [3], the system named is Rattus norvegicus. The test can be described thus: Hypolipidemic effect on rat plasma Total cholesterol (TC) level by peroral administration at 100 mg/kg dose (Experiment 2).
In test [4] the test system is Rattus norvegicus. Briefly: Hypolipidemic effects in rat fed a high cholesterol diet (HC) by peroral administration at 100 mg/kg dose.(increase in liver weight with respect to body weight mg/g); (Experiment 1).
Test [5] deals with Rattus norvegicus. Briefly: Hypolipidemic effects in rat fed a high cholesterol diet (HC) by peroral administration at 100 mg/kg dose.(increase in liver weight with respect to body weight mg/g); (Experiment 2).
Test [6] concerns Rattus norvegicus. The test can be described thus: Hypolipidemic effects in rat fed a normal diet by peroral administration at 100 mg/kg dose.(increase in liver weight with respect to body weight mg/g); (Experiment 1).
In test [7] the test system is Rattus norvegicus. The test can be described thus: Hypolipidemic effects in rat fed a normal diet by peroral administration at 100 mg/kg dose.(increase in liver weight with respect to body weight mg/g); (Experiment 2).
Test [8] deals with Rattus norvegicus. Briefly: Hypolipidemic effects of compound on rat plasma Triglyceride (TG) level after peroral administration at 100 mg/kg dose (Experiment 1).
Test [9] deals with Rattus norvegicus. The test can be described thus: Hypolipidemic effects of compound on rat plasma Triglyceride (TG) level after peroral administration at 100 mg/kg dose (Experiment 2).
Test [10] relates to Rattus norvegicus. Briefly: Hypolipidemic effects of compound on rat plasma high density lipoprotein cholesterol (HDLC) level after peroral administration at 100 mg/kg dose (Experiment 2).

On to `CC(C)(CCCCOc1ccc(CCCCc2ccccc2)cc1)C(=O)O`, for which the HDL-C in the test with Rattus norvegicus [1] was 49.4 mg/dL; in the test with Rattus norvegicus [10] it was 50.9 mg/dL. In addition, the TC was found to be 159.5 mg/dL in the test with Rattus norvegicus [2] and 132.9 mg/dL with Rattus norvegicus [3]. The Liver weight is 55.8 mg (g of body weight)-1 in the test with Rattus norvegicus [4], 59.1 mg (g of body weight)-1 in the test on Rattus norvegicus [5], 41.7 mg (g of body weight)-1 in the test on Rattus norvegicus [6] and 40.7 mg (g of body weight)-1 in the test on Rattus norvegicus [7]. Moreover, the results for the TG with Rattus norvegicus [8] and in the test with Rattus norvegicus [9] were 49 mg/dL and 33.8 mg/dL, respectively.
